Assay results taken from PubChem BioAssay AID328 (DTP/NCI, 2004).
Several values for one entry are separate records, joined by “and”; a condition that tells them apart may be missing. Equal values may be shown once. Inconclusive results and toxic doses are left out. The calls were made as follows: active = survival T/C of 150% or more; inactive = T/C below 125% in these data.

System: BDF1 mice, P388 leukemia ip, median survival T/C
Test: NCI In Vivo Anticancer Drug Screen. Data for tumor model P388 Leukemia (intraperitoneal) in B6D2F1 (BDF1) mice
Settings: endpoint: median survival time, higher = longer survival
How it was run: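 Survival ratio, drug arm over vehicle arm, in mice with a transplanted tumour.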

[1] = dose: 100.0 mg/kg/injection, schedule: Q01DX009 (ip), vehicle: saline
[2] = dose: 100.0 mg/kg/injection, schedule: Q01DX009 (ip), vehicle: saline with Tween-80
[3] = dose: 400.0 mg/kg/injection, schedule: Q01DX009 (ip), vehicle: saline with Tween-80
[4] = dose: 25.0 mg/kg/injection, schedule: Q01DX009 (ip), vehicle: saline with Tween-80
[5] = dose: 50.0 mg/kg/injection, schedule: Q01DX009 (ip), vehicle: saline with Tween-80
[6] = dose: 100.0 mg/kg/injection, schedule: Q04DX003 (ip), vehicle: saline with Tween-80
[7] = dose: 200.0 mg/kg/injection, schedule: Q04DX003 (ip), vehicle: saline with Tween-80
[8] = dose: 400.0 mg/kg/injection, schedule: Q04DX003 (ip), vehicle: saline with Tween-80
[9] = dose: 200.0 mg/kg/injection, schedule: Q01DX009 (ip), vehicle: saline with Tween-80

Measured: T/C

O=[N+]([O-])C(c1ccccc1)C(c1ccccc1)C(c1ccccc1)[N+](=O)[O-] (stereo not given)
inactive: dose: 50.0 mg/kg/injection, schedule: Q01DX005 (ip), vehicle: saline with Tween-80 103 % of control | dose: 100.0 mg/kg/injection, schedule: Q01DX005 (ip), vehicle: saline with Tween-80 87 % of control | dose: 200.0 mg/kg/injection, schedule: Q01DX005 (ip), vehicle: saline with Tween-80 91 % of control

CCc1ccccc1OS(=O)(=O)c1ccccc1[N+](=O)[O-]
inactive: dose: 100.0 mg/kg/injection, schedule: Q04DX003 (ip), vehicle: Klucel (hydroxypropylcellulose) (HPC) 100 % of control | dose: 200.0 mg/kg/injection, schedule: Q04DX003 (ip), vehicle: Klucel (hydroxypropylcellulose) (HPC) 100 % of control | dose: 400.0 mg/kg/injection, schedule: Q04DX003 (ip), vehicle: Klucel (hydroxypropylcellulose) (HPC) 100 % of control

CC(/C=N/NC(=[N-])N)=N\N=C(/[NH-])N.[Ni+2]
inactive: dose: 6.25 mg/kg/injection, schedule: Q01DX009 (ip), vehicle: Klucel (hydroxypropylcellulose) (HPC) 97 % of control | dose: 12.5 mg/kg/injection, schedule: Q01DX009 (ip), vehicle: Klucel (hydroxypropylcellulose) (HPC) 97 % of control

COc1cccc2c1C(=O)c1c(O)c3c(c(O)c1C2=O)C[C@@](O)(C(=O)CO)C[C@@H]3OC1CC(NC(=S)Nc2ccc3ccccc3c2)C(O)C(C)O1 (stereo not given in full)
inactive: dose: 1.56 mg/kg/injection, schedule: Q01DX009 (ip), vehicle: saline 95 % of control | dose: 3.12 mg/kg/injection, schedule: Q01DX009 (ip), vehicle: saline 86 % of control | dose: 6.25 mg/kg/injection, schedule: Q01DX009 (ip), vehicle: saline 94 % of control | dose: 25.0 mg/kg/injection, schedule: Q01DX009 (ip), vehicle: saline 99 % of control and 107 % of control | dose: 50.0 mg/kg/injection, schedule: Q01DX009 (ip), vehicle: saline 107 % of control | [1] 96 % of control

COC(=O)C(Br)C(Br)c1ccccc1 (stereo not given)
inactive: [2] 113 % of control | [3] 118 % of control

COc1ccc(CCNC(=S)NCCc2ccc(OC)c(OC)c2)cc1OC
inactive: dose: 50.0 mg/kg/injection, schedule: Q01DX001 (ip), vehicle: Klucel (hydroxypropylcellulose) (HPC) 100 % of control | dose: 100.0 mg/kg/injection, schedule: Q01DX001 (ip), vehicle: Klucel (hydroxypropylcellulose) (HPC) 100 % of control | dose: 200.0 mg/kg/injection, schedule: Q01DX001 (ip), vehicle: Klucel (hydroxypropylcellulose) (HPC) 90 % of control

CC(C)=CCCC(C)C/C=N\O (stereo not given)
inactive: dose: 12.5 mg/kg/injection, schedule: Q01DX009 (ip), vehicle: saline with Tween-80 107 % of control | [4] 107 % of control | [5] 96 % of control | [6] 109 % of control | [7] 113 % of control | [8] 109 % of control

COC(=O)NC1CCCCC1I (stereo not given)
inactive: [2] 100 % of control | [6] 100 % of control | [9] 100 % of control | [7] 100 % of control | [3] 100 % of control | [8] 109 % of control

O=S(=O)(c1ccccc1)c1nn2nnnc2c2ccccc12
inactive: [4] 86 % of control | [5] 94 % of control | [2] 95 % of control

S=c1nc[nH]c2nc[nH]c12.[Ag]
inactive: [1] 100 % of control | dose: 200.0 mg/kg/injection, schedule: Q01DX009 (ip), vehicle: saline 108 % of control | dose: 400.0 mg/kg/injection, schedule: Q01DX009 (ip), vehicle: saline 87 % of control

CCCCn1cnc2c(=S)nc[nH]c21
inactive: dose: 15.0 mg/kg/injection, schedule: Q01DX010 (ip), vehicle: water 100 % of control | dose: 16.0 mg/kg/injection, schedule: Q01DX010 (ip), vehicle: saline 100 % of control | dose: 30.0 mg/kg/injection, schedule: Q01DX010 (ip), vehicle: water 90 % of control | dose: 32.0 mg/kg/injection, schedule: Q01DX010 (ip), vehicle: saline 90 % of control and 95 % of control | dose: 64.0 mg/kg/injection, schedule: Q01DX010 (ip), vehicle: saline 104 % of control and 113 % of control | dose: 128.0 mg/kg/injection, schedule: Q01DX010 (ip), vehicle: saline 95 % of control and 104 % of control

c1ccc(-c2nnn(-c3ccccc3)n2)cc1
inactive: [5] 93 % of control | [9] 93 % of control
